System: Plasmodium falciparum
Assay: Antimalarial activity against chloroquine-sensitive Plasmodium falciparum FCR-3 assessed as growth inhibition
Type: functional, organism-based

SMILES	EC50 [nM]
O=C(C[C@@H]1NCCC[C@H]1O)Cn1cnc2ccccc2c1=O (stereo in doubt; (+)-1) [FEBRIFUGINE]	0.076
O=C(C[C@@H]1NCCC[C@H]1O)Cn1cnc2ccccc2c1=O (stereo in doubt; (-)-1) [FEBRIFUGINE]	200

System: Plasmodium falciparum
Assay: Antimalarial activity against Plasmodium falciparum assessed as growth inhibition
Type: functional, organism-based

SMILES	EC50 [nM]
O=c1c2ccccc2ncn1C[C@@H]1C[C@@H]2[C@@H](O)CCCN2CO1	3.7
COCO[C@H]1CCCN2CO[C@H](Cn3cnc4ccccc4c3=O)C[C@H]12	8.6
CC(=O)O[C@H]1CCCN(C(C)=O)[C@@H]1CC(=O)Cn1cnc2ccccc2c1=O	910
CCOC(=O)N1CCC[C@H](O)[C@H]1CC(=O)Cn1cnc2ccccc2c1=O	4800
O=C(C[C@H]1NCCCC1=O)Cn1cnc2ccccc2c1=O	20

System: Plasmodium berghei
Assay: Antimalarial activity against Plasmodium berghei infected in mouse
Type: functional

SMILES	ED50 [mg/kg/day]
O=C(C[C@H]1NCCC[C@@H]1O)Cn1cnc2ccc(O)cc2c1=O	0.3
O=C(C[C@H]1NCC[C@H](O)[C@@H]1O)Cn1cnc2ccccc2c1=O	2.4
O=C(C[C@@H]1NCCC[C@H]1O)Cn1cnc2ccccc2c1=O (stereo in doubt; (+)-1) [FEBRIFUGINE]	0.6

Reference: ChEMBL document CHEMBL3232880, “The chemistry and biology of febrifugine and halofuginone” (Bioorg Med Chem, 2014)
